What was measured:
[1] = Toxicity / neurotoxic activity (no method described)
platelet = experiment: Platelet-increasing activity (platelet count, Fonio direct method); type: in vivo, mice; settings: for increase of the number of platelet versus control: 1 mg/0.5 ml./body i.p., 10 mins. after administration, versus Ringer-Locke control
Description: Platelet-Increasing Activity: • The compound having the formula shown in Example 1 was intraperitoneously administered to ddY female ten(10) mice as one grouping at the dose of 1 mg/0.5 ml./body in the form of a Ringer-Locke solution (1 mg. of the compound was dissolved in a Ringer-Locke solution). One eyeball was isolated 10 mins. after the administration to bleed. Blood was collected and the number of platelet was measured according to a direct method (Fonio original method), details of which are described in Dsch. Z. Schr. Chir., vol. 117, page 176 (1912).
As a control group, a Ringer-Locke solution was intraperitoneously administered at the dose of 0.5 ml/body for comparison.
Activity on Platelet-Increase: • The procedure similar to Example 3 was repeated except that the compound of Example 3 was used instead of the compound of Example 1.

Male mice = experiment: Hemostatic test (bleeding time after wounding the tail vein); type: in vivo; settings: for rate of shortening bleeding time (shortened rate): summary in the description; for Bleeding Time (mean±S.E.) After Administration / Shortened Time (mean±S.E.) / Shortened Rate: Table 7; for Bleeding Time (mean±S.E.) After Administration / Shortened Time (mean±S.E.): mean of five tests, dose not stated; for Shortened Rate: shortened time relative to bleeding time before administration
Description: The present invention will be described in more detail with reference to the examples below, in which hemostatic test was performed as follows:
Male mice weighing 15 to 20 g. were intraperitoneously given with 0.5 ml. of a Locke solution. The mice-.were holded on a mouse holder 10 minutes after the administration, where the left vein of the tail at the middle of the tail (3 to 4 cm. from the root of the tail) was wounded with a knife to bleed. A filter paper was softly touched with the incised wound at the interval of 30 seconds and observation was made if blood was transferred onto the filter paper. Time until blood was not transferred onto the filter paper was measured and was made a bleeding time for control
Subsequently, a test compound dissolved in 0.5 ml. of a Locke solution was intraperitoneously administered to the same mice. The mice were holded onto a mouse holder 10 minutes after the administration. The right vein at the middle of the tail was wounded with a knife and a bleeding time was measured as in control described above.
A difference in bleeding time between the control and the test compound was made a shortened time for bleed-stopping.

SMILES: N[C@H](CNC(=O)C(=O)O)C(=O)O [Compound of Example 3, D-N-β-Oxalyl- α, β -diaminopropionic acid]
- neurotoxic side effect / neurotoxic activity (in words) [1]: slighter in neurotoxic activity
- increase of the number of platelet versus control (platelet; ddY female mice): ~24%
- Number of Platelet (platelet; Table 6, same procedure as Table 4 (1 mg/0.5 ml./body i.p., ddY female mice)): 68.0 ± 7.35 10,000/mm^3
- rate of shortening bleeding time (shortened rate) (Male mice): 35%

SMILES: N[C@@H](CNC(=O)C(=O)O)C(=O)O [compound of Example 1, L-N-β-oxalyl-α,β-diaminopropionic acid]
- neurotoxic side effect / neurotoxic activity (in words) [1]: does not exhibit neurotoxic side effect
- increase of the number of platelet versus control (platelet; ddY female mice): about 30%
- Number of Platelet (platelet; Table 4, 1 mg/0.5 ml./body i.p. in Ringer-Locke solution, ddY female mice, 10 per group, blood 10 mins. after administration): 69.6 ± 6.31 10,000/mm^3
- Bleeding Time (mean±S.E.) After Administration (Male mice): 354 ± 45 s
- Shortened Time (mean±S.E.) (Male mice): 192 ± 36 s
- Shortened Rate (Male mice): 35.16%
- rate of shortening bleeding time (shortened rate) (Male mice): 35%

SMILES: NC[C@H](N)C(=O)O [α,β-diaminopro-pionic acid, L-α, β-diaminopropionic acid]
- toxicity relative to that of the oxalyl derivative ([1]; compared with L-N-β-oxalyl-α, β-diaminopropionic acid): about 1/5
- increase of the number of platelet as compared to a control (platelet; dose not stated): about 17%
- Bleeding Time (mean±S.E.) After Administration (Male mice): 306 ± 37 s
- Shortened Time (mean±S.E.) (Male mice): 240±33 p<0.05 second
- Shortened Rate (Male mice): 43.96%
- rate of shortening bleeding time (shortened rate) (Male mice): 44%
